In one data set the target is T1, AOX1 (Homo sapiens, UniProt Q06278).
T1 sequence (Q06278 1-1338): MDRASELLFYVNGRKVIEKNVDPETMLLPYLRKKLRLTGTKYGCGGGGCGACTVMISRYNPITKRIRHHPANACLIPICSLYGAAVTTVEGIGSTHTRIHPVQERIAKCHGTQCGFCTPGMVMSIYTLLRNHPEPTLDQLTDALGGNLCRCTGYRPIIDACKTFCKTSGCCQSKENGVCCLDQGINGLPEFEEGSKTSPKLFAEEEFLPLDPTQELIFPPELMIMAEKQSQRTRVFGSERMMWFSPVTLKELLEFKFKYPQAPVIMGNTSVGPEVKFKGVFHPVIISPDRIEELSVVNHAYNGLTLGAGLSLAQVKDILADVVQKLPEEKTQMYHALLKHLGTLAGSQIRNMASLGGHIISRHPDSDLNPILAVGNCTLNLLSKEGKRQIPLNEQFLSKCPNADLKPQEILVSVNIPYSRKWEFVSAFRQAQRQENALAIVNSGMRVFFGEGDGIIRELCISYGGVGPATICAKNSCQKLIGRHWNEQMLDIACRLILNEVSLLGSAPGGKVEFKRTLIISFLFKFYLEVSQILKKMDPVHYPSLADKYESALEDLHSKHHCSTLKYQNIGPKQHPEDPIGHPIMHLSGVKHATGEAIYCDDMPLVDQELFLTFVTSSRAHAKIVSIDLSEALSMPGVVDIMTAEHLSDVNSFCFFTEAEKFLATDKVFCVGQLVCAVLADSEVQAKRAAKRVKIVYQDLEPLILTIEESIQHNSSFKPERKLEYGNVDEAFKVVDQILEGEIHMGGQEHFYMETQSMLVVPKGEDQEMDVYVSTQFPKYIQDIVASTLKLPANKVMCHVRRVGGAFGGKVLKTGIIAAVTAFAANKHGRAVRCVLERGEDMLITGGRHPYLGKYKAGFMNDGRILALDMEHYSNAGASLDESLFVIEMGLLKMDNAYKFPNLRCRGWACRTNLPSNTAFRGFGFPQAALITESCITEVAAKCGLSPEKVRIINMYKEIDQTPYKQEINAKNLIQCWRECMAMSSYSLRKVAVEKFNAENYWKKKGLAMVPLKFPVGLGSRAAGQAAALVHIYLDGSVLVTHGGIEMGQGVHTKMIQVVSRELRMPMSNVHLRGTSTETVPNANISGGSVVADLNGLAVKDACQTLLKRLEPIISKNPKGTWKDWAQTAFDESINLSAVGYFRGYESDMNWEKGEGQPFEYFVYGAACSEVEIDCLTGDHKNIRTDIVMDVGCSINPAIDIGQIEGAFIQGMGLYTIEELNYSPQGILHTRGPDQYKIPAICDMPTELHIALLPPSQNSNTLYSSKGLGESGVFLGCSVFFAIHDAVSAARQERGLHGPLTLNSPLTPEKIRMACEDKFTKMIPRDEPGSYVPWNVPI
The note with it: human liver cytosol.

In data set [1] the test system is aldehyde oxidase (AOX). Particulars: rat liver cytosol, mean ± SEM, estimate, saturation incomplete.
In data set [2] the target is T2, aldehyde oxidase (AOX) (Cavia porcellus, UniProt H9TB17).
T2 sequence (H9TB17 1-1332): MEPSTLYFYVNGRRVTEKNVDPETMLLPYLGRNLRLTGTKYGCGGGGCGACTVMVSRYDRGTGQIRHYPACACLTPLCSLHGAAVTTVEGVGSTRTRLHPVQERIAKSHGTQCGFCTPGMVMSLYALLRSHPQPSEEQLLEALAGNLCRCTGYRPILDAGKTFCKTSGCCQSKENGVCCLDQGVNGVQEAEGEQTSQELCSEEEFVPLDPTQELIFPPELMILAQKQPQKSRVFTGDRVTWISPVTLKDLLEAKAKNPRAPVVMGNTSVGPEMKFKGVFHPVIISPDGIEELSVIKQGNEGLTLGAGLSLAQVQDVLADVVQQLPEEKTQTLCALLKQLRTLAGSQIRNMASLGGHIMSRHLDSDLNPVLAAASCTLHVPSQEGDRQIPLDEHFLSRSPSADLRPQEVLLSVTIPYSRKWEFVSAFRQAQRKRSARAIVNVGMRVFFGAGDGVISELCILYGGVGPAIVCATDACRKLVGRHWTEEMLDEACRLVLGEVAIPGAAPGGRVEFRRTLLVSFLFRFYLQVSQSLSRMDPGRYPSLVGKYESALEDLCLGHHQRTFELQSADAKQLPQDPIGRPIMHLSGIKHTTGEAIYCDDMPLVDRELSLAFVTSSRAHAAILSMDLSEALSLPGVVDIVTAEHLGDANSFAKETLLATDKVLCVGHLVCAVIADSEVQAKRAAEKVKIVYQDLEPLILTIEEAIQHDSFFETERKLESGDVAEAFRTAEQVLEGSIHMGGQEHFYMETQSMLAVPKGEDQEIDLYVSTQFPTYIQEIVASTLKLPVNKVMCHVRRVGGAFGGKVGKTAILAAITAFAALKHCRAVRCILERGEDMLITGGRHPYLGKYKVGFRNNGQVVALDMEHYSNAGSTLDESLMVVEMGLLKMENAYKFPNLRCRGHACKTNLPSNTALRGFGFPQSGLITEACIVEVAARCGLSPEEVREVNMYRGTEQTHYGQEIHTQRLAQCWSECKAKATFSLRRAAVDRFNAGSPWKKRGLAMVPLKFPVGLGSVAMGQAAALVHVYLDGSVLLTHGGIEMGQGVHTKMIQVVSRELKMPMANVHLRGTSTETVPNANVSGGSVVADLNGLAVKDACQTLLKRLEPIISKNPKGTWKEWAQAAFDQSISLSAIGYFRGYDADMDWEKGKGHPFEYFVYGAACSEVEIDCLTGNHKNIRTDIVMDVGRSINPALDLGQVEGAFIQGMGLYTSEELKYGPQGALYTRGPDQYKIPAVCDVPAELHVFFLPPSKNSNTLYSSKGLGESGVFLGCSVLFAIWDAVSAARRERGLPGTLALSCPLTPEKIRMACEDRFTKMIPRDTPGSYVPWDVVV
The note with it: guinea pig liver cytosol, mean ± SEM; estimate, saturation incomplete.

Where two headings read alike, the source gives them in different places.

A word on the Vmax: it is the top rate of the reaction or transport when substrate is in excess.

Consider `CN(Cc1cnc2nc(N)nc(N)c2n1)c1ccc(C(=O)N[C@@H](CCC(=O)O)C(=O)O)cc1` [Methotrexate, 4-amino-N^1^0-methylpteroglutamic acid], for which the “kcat (Vmax/[AOX1])” value on AOX1 (calculated from Vmax and AOX1 level (figure 1A)) is 0.04 s⁻¹. Also, the “In vitro CLint AOX1” value on AOX1 (from specific activity and Km) turned out to be 0.9 min^− 1mM^−1. Also, the Vmax with aldehyde oxidase (AOX) [1] is 50 ± 3 pmol/min/mg; in the data set with aldehyde oxidase (AOX) [1] (listed as methotrexate), 40 to 70 pmol/min/mg; on aldehyde oxidase (AOX) [2], 70 ± 10 pmol/min/mg.

The values above are taken from PMC4574636 (Biochemical pharmacology, 2015).
